Article PMC10914731, “Homo-BacPROTAC-induced degradation of ClpC1 as a strategy against drug-resistant mycobacteria” (Nature Communications, 2024)
In brackets after ≈: the same amount, converted by molar mass. Several values for one entry are separate records, joined by “and”; a condition that tells them apart may be missing. Identical values can stand only once. Like-named read-outs stand apart in the source and are kept apart here. *1 amine or outer side, *2 acyl side, *3 side chain or, on linkers, in order; H or OH if unused. Where a SMILES comes first, the peptide text is derived from it. [ ]: non-standard residue; d: D form. X1 = C#CCn1cc(C[C@H](N[*:1])C(=O)[*:2])c2ccccc21; NMeLeu(5-OH,4R) = CN[C@@H](C[C@@H](C)CO)C(=O)O; Phe(βR-OMe) = CO[C@H](c1ccccc1)[C@H](N)C(=O)O; NMeL = CN[C@@H](CC(C)C)C(=O)O

How the values were obtained:
[1] = Hepatocyte stability, mice; assay type: in vitro ADME; details: mouse, pH 7.4
Method in brief: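 1 µM cpd (DMSO <0.05% final), cryopreserved hepatocytes ~1e6 cells/mL, 50% serum, pH 7.4, 37 °C/5–10% CO2; up to 6 h, 6 timepoints; ACN quench, HPLC-MS/MS; t1/2 → CL via well-stirred model, % Qh.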

Mtb # 11291 = assay: microbe, parasite or virus in culture; assay type: cell-based; details: single well replicates
Pseudomonas aeruginosa = assay: MIC ESKAPES panel, Pseudomonas aeruginosa; assay type: cell-based
Procedure: Minimum inhibitory concentration (MIC) against ESKAPES panel of Gram positive and Gram negative pathogens (Enterococcus faecium, Staphylococcus aureus, Klebsiella pneumoniae, Acinetobacter baumannii, Pseudomonas aeruginosa, Enterobacter cloacae and Salmonella typhimurium [ESKAPES panel]) were determined at the FNDR by the standard broth dilution method [CLSI, M100]. […] Mueller Hinton broth (MHB) medium was used to grow ESKAPES panel strains. The individual cultures were added as 200 μL (inoculum of 3–7 × 10^5 cfu/ml) to the respective assay plates in each well to all columns, except the media control (200 μL of medium). […] The assay plates were incubated at 37 °C, and the results were noted on the 2nd day as turbidometric readout. The clear wells indicated inhibition of growth, while the turbid wells indicated uninhibited growth.

Msm #607 = assay: Minimum bactericidal concentration (MBC), Msm #607; assay type: cell-based, Mycobacterium smegmatis; details: Mycolicibacterium smegmatis
[2] = target: endogenous ClpC1 in Msm #607 cells (Mycolicibacterium smegmatis, UniProt A0R574); assay type: cell-based, M. smegmatis
Sequence of endogenous ClpC1 in Msm #607 cells (A0R574 whole entry): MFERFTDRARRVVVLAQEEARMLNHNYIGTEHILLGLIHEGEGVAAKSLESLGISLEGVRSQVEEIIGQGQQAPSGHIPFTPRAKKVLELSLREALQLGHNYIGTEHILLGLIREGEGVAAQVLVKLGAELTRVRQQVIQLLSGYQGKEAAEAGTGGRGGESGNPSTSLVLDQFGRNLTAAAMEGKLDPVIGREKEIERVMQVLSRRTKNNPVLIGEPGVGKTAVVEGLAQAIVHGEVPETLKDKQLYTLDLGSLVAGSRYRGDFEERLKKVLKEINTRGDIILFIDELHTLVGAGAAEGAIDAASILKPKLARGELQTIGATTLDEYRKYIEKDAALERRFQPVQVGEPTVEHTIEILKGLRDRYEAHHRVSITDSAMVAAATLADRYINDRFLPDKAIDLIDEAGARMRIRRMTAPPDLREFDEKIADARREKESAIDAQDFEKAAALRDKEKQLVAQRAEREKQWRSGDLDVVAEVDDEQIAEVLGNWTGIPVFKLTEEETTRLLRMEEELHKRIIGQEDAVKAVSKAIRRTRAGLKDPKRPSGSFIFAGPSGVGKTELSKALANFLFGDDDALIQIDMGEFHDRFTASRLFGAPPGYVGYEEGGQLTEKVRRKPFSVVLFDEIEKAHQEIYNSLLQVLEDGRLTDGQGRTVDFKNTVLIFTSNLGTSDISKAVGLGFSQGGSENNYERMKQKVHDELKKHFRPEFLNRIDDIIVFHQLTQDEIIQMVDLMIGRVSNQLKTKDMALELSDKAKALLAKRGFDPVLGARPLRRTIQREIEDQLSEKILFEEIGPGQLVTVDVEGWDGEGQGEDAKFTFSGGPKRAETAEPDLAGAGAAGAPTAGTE

[3] = tested on: Mtb H37Rv in THP-1 macrophages; assay: Intracellular MIC assay in THP-1 macrophages; assay type: cell-based, Mycobacterium tuberculosis; design: Emax: unit not given here
in vivo = assay type: in vivo, BALB/cAnNCrl mice
Procedure: The in-life experimental procedures were conducted in strict compliance with German and European animal welfare legislation in an AAALAC-accredited facility. Male BALB/cAnNCrl mice (Charles River Laboratories Research Models and Services, 97633 Sulzfeld, Germany) were used. Animals were 9 weeks old at dosing with a body weight of 21.6–24.3 g. Animals were delivered free of pathogens according to FELASA recommendations with a health certificate provided by the breeder. Upon receipt, the state of health and sex was checked. Animals acclimatized for at least 5 days before the commencement of the in-life phase. During acclimation, animals were group-housed in individually ventilated cages, on birch wood granulate bedding with species-specific enrichment (nesting material, mouse igloo, gnawing wood). During experimental conduct, animals were housed in conventional cages with elevated grid floors. Grid floor was used to avoid contamination with test item material excreted via urine and feces and subsequent reuptake during fur grooming. No bedding and enrichment were provided except a cage divider, which can be used as a shelter. Animals always had unlimited access to food and water and received a pelleted, total pathogen-free maintenance diet and tap drinking water, sterilized by filter.
In case of incomplete dissolution, the formulation was filtered at 40 °C (non-pyrogenic sterile-R filter, 0.2 µm). All formulations were stirred warm until administration. Actual test item content was determined bioanalytically.
Male BALB/cAnNCrl mice (n = 3 per test item and administration route) received a bolus dose of the formulated test item(s) (1 mg/kg iv, 30 mg/kg po) at t = 0 h, and whole blood samples were collected subsequently (35 µl at 0.1 (iv) / 0.25 (po), 0.5, 1, 2, 4, 6 h; 600 µl at sacrifice after 24 h). Animals were euthanized by exsanguination in deep isoflurane anesthesia. Whole blood samples were immediately stored on ice at about 4 °C. Plasma was separated by centrifugation at approximately 10,000 × g for 5 m at +4 °C. Centrifugation of each blood sample was started within 10 m after collection. A single aliquot of at least 15 µL of plasma was prepared and immediately stored at −20 ± 5 °C.
Sample proteins were precipitated with ACN (1 + 12, v/v) containing internal standard, and supernatants analyzed by quantitative UPLC-MS/MS: Phenomenex Luna Omega C18, 2.1 × 50 mm, 1.6 µm, 40 °C, gradient between 10% - 90% ACN with 0.1% formic acid. LogD determination: Lipophilicity of the test items, expressed as chromLogD7.5, was assessed by measuring their chromatographic retention times on C18-material. The chromatographic retention versus logD7.5 values of a series of thirteen n-alkan-2-ones (2-butanone – 2-hexadecanone) served as lipophilicity calibration.

[4] = iv bolus, individual animals 1-3
[5] = male, BALB/cAnNCrl, mouse, in vivo, iv, 1.062 umol/kg, iv bolus, individual animals 1-3
[6] = male, BALB/cAnNCrl, mouse, in vivo, iv, 1.062 umol/kg, iv bolus, mice, Mean

## C#CCn1cc(C[C@@H]2NC(=O)[C@H](C(C)C)NC(=O)[C@H](CC(C)C)N(C)C(=O)[C@H](C(C)C)NC(=O)[C@H]([C@H](OC)c3ccccc3)NC(=O)[C@H](C)NC(=O)[C@H](C[C@@H](C)CO)N(C)C2=O)c2ccccc21 [Compound 5] (cyclo(A[Phe(βR-OMe)]V[NMeL]V[X1][NMeLeu(5-OH,4R)]))
[1]
  Hepatocyte Mice: 58 %Qh
Mtb # 11291
  MIC Mtb # 11291: 0.18 µg/mL (≈ 0.191 µM)
Mtb # 11291; read-out: MIC Mtb # 11291
  MIC: 0.19 µM (≈ 0.179 µg/mL)
Pseudomonas aeruginosa; Gram-Negative Bacteria, replicates 1-3
  MIC: >50 µM
Pseudomonas aeruginosa; Pseudomonas aeruginosa, Gram negative, n = 3 well replicates
  MIC: > 50 µM
Pseudomonas aeruginosa; Pseudomonas aeruginosa, Gram-Negative Bacteria, replicates 1-3
  MIC: > 47 µg/mL
Msm #607; ATCC607, read-out: MBC (from Set 3) Msm ATCC 607
  MBC: > 47 µg/mL and > 50 µM
Msm #607; read-out: MBC Msm #607, individual example
  MBC: > 50 µM and > 47.1 µg/mL
[2]; 100 µM, Figure 5c, well replicates of 3 experiments
  ClpC1 peak area: 296040 and 308121 and 346162 and 550976 and 476988 and 428795 and 417149 and 443522 and 406576
[2]; Msm #607, 24 h, result in words
  intracellular degradation of ClpC1: did not induce degradation of ClpC1
[3]
  Emax: 1.14
[3]; 0.195µM, Day 4, well replicates
  intracellular viable mycobacteria: 5.51 log10 cfu/ml
[3]; 0.195µM, Day 7, well replicates
  intracellular viable mycobacteria: 5.68 log10 cfu/ml
[3]; 0.781µM, Day 4, well replicates
  intracellular viable mycobacteria: 4.46 log10 cfu/ml and 4.51 log10 cfu/ml
[3]; 3.125µM, Day 4, well replicates
  intracellular viable mycobacteria: 4.19 log10 cfu/ml and 4.2 log10 cfu/ml
[3]; 3.125µM, Day 7, well replicates
  intracellular viable mycobacteria: 4.96 log10 cfu/ml
In vivo; [4]
  AUC0-inf/Dose: 180 h nM/(nmol kg-1) and 169 h nM/(nmol kg-1) and 158 h nM/(nmol kg-1)
  AUC0-t/Dose: 177 h nM/(nmol kg-1) and 161 h nM/(nmol kg-1) and 154 h nM/(nmol kg-1)
  CL: 98.5 mL/min/kg and 106 mL/min/kg
  CL PL QH: 103.0% and 109.0% and 117.0%
  Cmax/Dose: 488 nM/(nmol kg-1) and 361 nM/(nmol kg-1) and 396 nM/(nmol kg-1)
  MRT: 54 min and 42 min
  Plasma concentration 0.1 h: 518 nM and 384 nM and 421 nM
  Plasma concentration 0.5 h: 85.1 nM and 88.1 nM and 71.5 nM
  Plasma concentration 1 h: 33.6 nM and 37.9 nM and 32.6 nM
  Plasma concentration 2 h: 12.3 nM and 14.2 nM and 13.4 nM
  Plasma concentration 4 h: 2.7 nM and 4.8 nM and 2.9 nM
  Vss: 5.6 L/kg and 4.6 L/kg
  t1/2: 78 min
In vivo; iv bolus, mice, Mean
  AUC0-inf/Dose: 169 h nM/(nmol kg-1)
  AUC0-t/Dose: 164 h nM/(nmol kg-1)
  CL PL QH: 110.0%
  Cmax/Dose: 415 nM/(nmol kg-1)
  Plasma concentration 0.1 h: 441 nM
  Plasma concentration 0.5 h: 81.6 nM
  Plasma concentration 1 h: 34.7 nM
  Plasma concentration 2 h: 13.3 nM
  Plasma concentration 4 h: 3.5 nM
In vivo; [5]
  clearance: 92.3 mL/min/kg
  half-life: 54 min
In vivo; male, BALB/cAnNCrl, mouse, in vivo, iv, 1.062 umol/kg, iv bolus, individual animals 1-3, read-out: MRT
  MRT: 36 min
In vivo; male, BALB/cAnNCrl, mouse, in vivo, iv, 1.062 umol/kg, iv bolus, individual animals 1-3, read-out: Vss
  Vd: 3.5 L/kg
In vivo; [6]
  clearance: 98.8 mL/min/kg
  half-life: 60 min
In vivo; male, BALB/cAnNCrl, mouse, in vivo, iv, 1.062 umol/kg, iv bolus, mice, Mean, read-out: MRT
  MRT: 48 min
In vivo; male, BALB/cAnNCrl, mouse, in vivo, iv, 1.062 umol/kg, iv bolus, mice, Mean, read-out: Vss
  Vd: 4.5 L/kg
In vivo; male, BALB/cAnNCrl, mouse, in vivo, iv, 1 mg/kg, mice, 1 mg kg-1 iv bolus, read-out: VSS
  Vd: 4.54 L/kg
In vivo; male, BALB/cAnNCrl, mouse, in vivo, iv, 1 mg/kg, plasma clearance, mice, 1 mg kg-1 iv bolus
  clearance: 98.8 mL/min/kg
In vivo; male, BALB/cAnNCrl, mouse, in vivo, iv, 1 mg/kg, plasma, mice, 1 mg kg-1 iv bolus
  half-life: 61.8 min
In vivo; mouse, in vivo, iv
  AUC: 164 h nM/(nmol kg-1)
  Cmax: 415 nM/(nmol kg-1)
  Plasma concentration 6 h: BLOQ
  Plasma concentration 24 h: BLOQ
